Results taken from patent publication US20120122727A1, “IN VITRO METHOD FOR PREDICTING WHETHER A COMPOUND IS GENOTOXIC IN VIVO” (priority 2009, published 2012).

What was measured:
[1] = tested on: primary mouse hepatocytes
[2] = tested on: primary mouse hepatocytes; experiment: Gene expression (Affymetrix Mouse Genome 430 2.0) in primary mouse hepatocytes, true vs false GTX, 24 h and 48 h
[3] = tested on: primary mouse hepatocytes; experiment: Gene expression in primary mouse hepatocytes, GTX vs non-GTX (four-gene classifier, 24 h)

With Mitomycin C [MitC] the “Gene expression data AF204959 (Cyp3a25 /// LOC622249)” value [1] was 0.8169, the “Gene expression AA561726 average” value [2] was −4.372 and the “Gene expression AF000969 average” value [2] was −3.3606. For the same substance, the “Gene expression AF022072 average” value [2] was −3.37, the “Gene expression AF033112 average” value [2] was 2.219 and the “Gene expression AF055573 average” value [2] was −2.916. The “Gene expression AF069954 average” value [2] was 2.26, the “Gene expression AF297615 average” value [2] was 1.841 and the “Gene expression AF335325 average” value [2] was 1.755. The “Gene expression AI594683 average” value [2] was 4.611, the “Gene expression AI747296 average” value [2] was −2.056 and the “Gene expression AK005731 average” value [2] was 6.089. The “Gene expression AK007854 average” value [2] was 1.5, the “Gene expression AK010447 average” value [2] was −1.6388 and the “Gene expression AK010738 average” value [2] was 1.98. For the same substance, the “Gene expression AK014608 average” value [2] was 2.8746, the “Gene expression AK017734 average” value [2] was 1.835 and the “Gene expression AK018383 average” value [2] was 0.994. The “Gene expression AK019979 average” value [2] was −3.757, the “Gene expression AV095209 average” value [2] was −2.78 and the “Gene expression AV141095 average” value [2] was −2.411. For the same substance, the “Gene expression AV173869 average” value [2] was −2.2889, the “Gene expression AV216768 average” value [2] was −4.149 and the “Gene expression AV219418 average” value [2] was 4.168. The “Gene expression AV221299 average” value [2] was −3.71, the “Gene expression AV246296 average” value [2] was 1.4788 and the “Gene expression AV251625 average” value [2] was 2.477. The “Gene expression AV254764 average” value [2] was 1.411, the “Gene expression AV327248 average” value [2] was 4.918 and the “Gene expression BB009155 average” value [2] was 2.9201. For the same substance, the “Gene expression BB027848 average” value [2] was 1.879, the “Gene expression BB043558 average” value [2] was 2.332 and the “Gene expression BB046347 average” value [2] was 1.35. For the same substance, the “Gene expression BB140436 average” value [2] was −1.601, the “Gene expression BB204486 average” value [2] was −4.144 and the “Gene expression BB223872 average” value [2] was 2.201. For the same substance, the “Gene expression BB246912 average” value [2] was −1.866, the “Gene expression BB275142 average” value [2] was 2.282 and the “Gene expression BB458460 average” value [2] was −2.7207. For the same substance, the “Gene expression BB463610 average” value [2] was 2.728, the “Gene expression BB730977 average” value [2] was −2.36 and the “Gene expression BB743970 average” value [2] was 3.5588. The “Gene expression BB770528 average” value [2] was 2.0332, the “Gene expression BB781615 average” value [2] was 0.8952 and the “Gene expression BC003284 average” value [2] was 2.093. The “Gene expression BC004827 average” value [2] was −3.639, the “Gene expression BC005552 average” value [2] was −1.342 and the “Gene expression BC006713 average” value [2] was 1.2958. The “Gene expression BC010318 average” value [2] was −1.729, the “Gene expression BC012247 average” value [2] was 2.2674 and the “Gene expression BC012955 average” value [2] was −2.241. The “Gene expression BC013893 average” value [2] was 1.864, the “Gene expression BC017615 average” value [2] was −3.947 and the “Gene expression BC019379 average” value [2] was −2.7493. For the same substance, the “Gene expression BC019882 average” value [2] was 2.442, the “Gene expression BC021352 average” value [2] was 3.121 and the “Gene expression BC022148 average” value [2] was 2.668. The “Gene expression BC025169 average” value [2] was −3.296, the “Gene expression BC026131 average” value [2] was −0.9986 and the “Gene expression BC027026 average” value [2] was 2.873. For the same substance, the “Gene expression BC027121 average” value [2] was 2.742, the “Gene expression BC027185 average” value [2] was 2.115 and the “Gene expression BE956581 average” value [2] was 3.68. For the same substance, the “Gene expression BF719766 average” value [2] was 2.112, the “Gene expression BG065754 average” value [2] was 1.3079 and the “Gene expression BG066491 average” value [2] was −1.929. The “Gene expression BG076151 average” value [2] was 2.5119, the “Gene expression BG076333 average” value [2] was −1.87 and the “Gene expression BG797099 average” value [2] was 2.6244. For the same substance, the “Gene expression BG967046 average” value [2] was 1.305, the “Gene expression BI651416 average” value [2] was 2.2069 and the “Gene expression BI966443 average” value [2] was 4.094. The “Gene expression BM198879 average” value [2] was 1.928, the “Gene expression BM200015 average” value [2] was 1.702 and the “Gene expression BM230508 average” value [2] was 2.571. For the same substance, the “Gene expression BM936480 average” value [2] was 2.006, the “Gene expression BQ174991 average” value [2] was −2.777 and the “Gene expression L21027 average” value [2] was −4.612. For the same substance, the “Gene expression NM_007556 average” value [2] was −4.012, the “Gene expression NM_007980 average” value [2] was 2.9391 and the “Gene expression NM_007987 average” value [2] was 2.2406. The “Gene expression NM_008522 average” value [2] was 5.9249, the “Gene expression NM_008935 average” value [2] was −3.601 and the “Gene expression NM_009897 average” value [2] was 4.658. The “Gene expression NM_011075 average” value [2] was 3.096, the “Gene expression NM_011176 average” value [2] was 1.856 and the “Gene expression NM_011316 average” value [2] was 2.256. For the same substance, the “Gene expression NM_012006 average” value [2] was 3.166, the “Gene expression NM_013642 average” value [2] was −0.7845 and the “Gene expression NM_013738 average” value [2] was 2.749. The “Gene expression NM_013929 average” value [2] was 2.481, the “Gene expression NM_018881 average” value [2] was 2.279 and the “Gene expression NM_019738 average” value [2] was −2.772. For the same substance, the “Gene expression NM_030697 average” value [2] was 3.958, the “Gene expression NM_053122 average” value [2] was −4.049 and the “Gene expression NM_134147 average” value [2] was −2.8471. The “Gene expression NM_134188 average” value [2] was 0.4786, the “Gene expression X62701 average” value [2] was −1.3159 and the “Gene expression data AF000969 (Cadps2)” value [2] was −2.406. For the same substance, the “Gene expression data AF022072 (Grb10)” value [2] was −3.6802, the “Gene expression data AF065917 (Lif)” value [2] was 1.033 and the “Gene expression data AF297615 (Ggta1)” value [2] was 2.358. The “Gene expression data AI594683 (Dmn)” value [2] was 3.671, the “Gene expression data AI596632 (Ptprg /// LOC632664)” value [2] was −4.795 and the “Gene expression data AI987929 (Ndrg1)” value [2] was −3.324. For the same substance, the “Gene expression data AK004419 (Fbxl17)” value [2] was −4.0931, the “Gene expression data AK005731 (1700007K13Rik)” value [2] was 5.7645 and the “Gene expression data AK007766 (1810044A24Rik)” value [2] was −2.227. The “Gene expression data AK007854 (1810053B23Rik)” value [2] was 2.898, the “Gene expression data AK009736 (Gpr137b /// LOC664862 /// LOC673335)” value [2] was −1.056 and the “Gene expression data AK010447 (Smyd3)” value [2] was −1.439. For the same substance, the “Gene expression data AK014608 (4632434l11Rik)” value [2] was 2.3711, the “Gene expression data AK019979 (2610528E23Rik)” value [2] was −3.317 and the “Gene expression data AV095209 (Mthfd1l)” value [2] was −2.454. The “Gene expression data AV141095 (1110033M05Rik)” value [2] was −2.287, the “Gene expression data AV173571 (1700106N22Rik)” value [2] was −2.287 and the “Gene expression data AV219418 (Ldhb)” value [2] was 2.873. The “Gene expression data AV223474 (Zdhhc14)” value [2] was −2.283, the “Gene expression data AV298304 (Homez)” value [2] was 1.9706 and the “Gene expression data AV327248 (Zfp365 /// LOC674611)” value [2] was 4.258. For the same substance, the “Gene expression data AV377066 (9130221J18Rik)” value [2] was 2.462, the “Gene expression data AW240761 (Tbc1d5)” value [2] was −2.643 and the “Gene expression data AW543460 (Pard3)” value [2] was −3.164. The “Gene expression data AW543723” value [2] was 2.3145, the “Gene expression data AW986246 (Maoa)” value [2] was −0.2119 and the “Gene expression data BB027848 (4732466D17Rik)” value [2] was 2.18. For the same substance, the “Gene expression data BB043558 (9230114K14Rik)” value [2] was 2.308, the “Gene expression data BB275142 (AW456874)” value [2] was 1.944 and the “Gene expression data BB308836 (Ppm1l)” value [2] was −1.64. The “Gene expression data BB318221 (Zdhhc14)” value [2] was −2.706, the “Gene expression data BB463610 (4632434l11Rik)” value [2] was 2.535 and the “Gene expression data BB526605 (Mipol1)” value [2] was −2.035. The “Gene expression data BB770528 (Rai2)” value [2] was 2.603, the “Gene expression data BB821363 (Scfd2)” value [2] was −2.485 and the “Gene expression data BC004827 (Psat1)” value [2] was −2.4733. The “Gene expression data BC008626 (Icam1)” value [2] was 2.3005, the “Gene expression data BC010462 (BC010462)” value [2] was 1.163 and the “Gene expression data BC012247 (Dcxr)” value [2] was 2.094. The “Gene expression data BC012260 (Psmf1)” value [2] was 2.237, the “Gene expression data BC015270 (Hist2h3c2)” value [2] was 0.6339 and the “Gene expression data BC016073 (Cdkal1)” value [2] was −1.963. For the same substance, the “Gene expression data BC016265 (Ube2e2)” value [2] was −2.202, the “Gene expression data BC019882 (Acaa1b)” value [2] was 3.446 and the “Gene expression data BC025501 (Aaas)” value [2] was 2.023. The “Gene expression data BC025837 (Sbk1)” value [2] was 1.652, the “Gene expression data BC025915 (Cova1)” value [2] was −1.619 and the “Gene expression data BC026422 (Tgm1)” value [2] was 2.651. For the same substance, the “Gene expression data BF719766 (Thyn1)” value [2] was 2.045, the “Gene expression data BG065754 (Ccng1)” value [2] was 1.179 and the “Gene expression data BG066903 (Kif16b)” value [2] was −1.047. The “Gene expression data BG069873 (Gnb1l)” value [2] was 2.175, the “Gene expression data BG070887 (Gtdc1)” value [2] was −2.356 and the “Gene expression data BG076151 (Ppm1d)” value [2] was 2.238. The “Gene expression data BG261907 (Large)” value [2] was −3.876, the “Gene expression data BI651416 (Cdc42bpg)” value [2] was 2.482 and the “Gene expression data BI660702 (Ell3)” value [2] was 3.742. The “Gene expression data BM198879 (Ercc5)” value [2] was 2.012, the “Gene expression data BM230508 (A030007D23Rik)” value [2] was 2.556 and the “Gene expression data NM_007987 (Fas)” value [2] was 2.6645. For the same substance, the “Gene expression data NM_008522 (Ltf)” value [2] was 3.9908, the “Gene expression data NM_008576 (Abcc1)” value [2] was −1.312 and the “Gene expression data NM_011176 (St14)” value [2] was 2.078. The “Gene expression data NM_011316 (Saa4)” value [2] was 2.611, the “Gene expression data NM_012006 (Acot1)” value [2] was 3.959 and the “Gene expression data NM_013866 (Zfp385)” value [2] was 2.3. For the same substance, the “Gene expression data NM_018770 (Igsf4a)” value [2] was −2.054, the “Gene expression data NM_021451 (Pmaip1)” value [2] was 2.681 and the “Gene expression data NM_025770 (Atg10)” value [2] was −1.329. The “Gene expression data NM_028803 (Gbe1)” value [2] was −1.8898, the “Gene expression data NM_030697 (Ankrd47)” value [2] was 3.874 and the “Gene expression data NM_053168 (Trim11)” value [2] was 1.4821. The “Gene expression data NM_134188 (Acot2)” value [2] was −0.06593, the “Gene expression data Y15910 (Diap2)” value [2] was −2.813 and the “score 1700007K13RIK” value [3] was 1. The “score DDIT4L” value [3] was 1, the “score GAS2L3” value [3] was 1 and the “score SPC25” value [3] was 1.
